# Test results reported in patent US20230193350A1, “METHOD FOR DIAGNOSING AND TREATING BLOOD CANCER” (Ohara Pharmaceutical Co., Ltd., priority 2020, published 2023).
# Columns and labels:
# Type in all cases: cell-based
# MT-1 cells = assay: Proliferation of MT-1 cells (Cell Countdown Kit-8, formazan absorbance); conditions: 4 days, FIG. 3
# Method: MT-1 cells (ATL-derived cell lines) were purchased from JCRB Cell Bank. MT-1 cells were seeded on a 24-well plate at 0.4×10^5 cells/0.9 mL/well and cultured for 3 hours in an RPMI1640 culture solution comprising 10% fetal bovine serum (FBS) and 1% penicillin-streptomycin in an environment of 37° C. and 5% CO2. Then, OR21, a DNA methyl transferase inhibitor and/or EPZ-6438 or DS-3201b, histone methyl transferase inhibitors were dissolved in the same culture solution, and 0.1 mL thereof was added to each well, and cultured for 4 days while exchanging with a fresh culture solution comprising each inhibitor every two days. The final concentrations of the inhibitors in the culture solution were 0.5 μM for OR21, 2.5 μM for EPZ-6438, and 0.1 μM, 0.5 μM, and 2.5 μM for DS-3201b. In addition, groups of single and combined additions of each inhibitor were provided. The effect of each inhibitor on cell proliferation was measured using Cell Countdown Kit-8 (Dojindo Laboratories). The water-soluble formazan in each well produced from reduction of tetrazolium salt […] was measured at two wavelength (450 nm/620 nm) using a plate reader (Varioskan Flash, Thermo-Fisher Scientific). The results are expressed as relative values with the absorbance of the wells in which no inhibitor was added as 100%.
# DUSP5 protein = assay: Expression amount of DUSP5 protein in MT-1 cells by Western blotting; conditions: 4 days culture, FIG. 2B
# Method: (§1) MT-1 cells (ATL-derived cell lines) were purchased from JCRB Cell Bank and cultured in an RPMI1640 culture solution comprising 10% fetal bovine serum (FBS) and 1% penicillin-streptomycin in an environment of 37° C. and 5% CO2. The culture was started by additions of OR21, a DNA methyl transferase inhibitor and/or EPZ-6438, a histone methyl transferase inhibitor to a culture solution of MT-1 cells, exchanged with a fresh culture solution comprising the inhibitors after 2 days, and further cultured for 2 days. After culturing, the cells were collected and dissolved, and the expression amount of DUSP5 protein was measured by Western blotting.
# DUSP5 mRNA = assay: Expression amount of DUSP5 mRNA in MT-1 cells by RT-PCR; conditions: 4 days culture, FIG. 2A
# Method: as §1, with “total RNA was extracted,” for “dissolved,”, “mRNA” for “protein”, “RT-PCR using SYBR @ Green (Takara Bio).” for “Western blotting.”
compound,measurement,setting,value
"Cc1cc(C)c(CNC(=O)c2cc(Cl)c3c(c2C)O[C@@](C)([C@H]2CC[C@H](N(C)C)CC2)O3)c(=O)[nH]1.Cc1ccc(S(=O)(=O)O)cc1 [DS-3201b, 4-methylbenzene-1-sulfonic acid (2R)-7-chloro-2-[(trans)-4-(dimethylamino)cyclohexyl]-N-[(4,6-dimethyl-2-oxo-1,2-dihydropyridin-3-yl)methyl]-2,4-dimethyl-2H-1,3-benzodioxole-5-carboxamide]",proliferation of MT-1 cells,MT-1 cells; DS-3201b 0.1 μM to 2.5 μM,hardly affected
"CC[Si](CC)(CC)OC[C@H]1O[C@@H](n2cnc(N)nc2=O)C[C@@H]1O [OR21, 5′-O-triethylsilyl-2′-deoxy-5-azacytidine]",expression amount of DUSP5 protein,DUSP5 protein; OR21 0.5 μM,apparent increase
same,DUSP5 mRNA expression,DUSP5 mRNA; OR21 at 0.1 μM and 0.5 μM,enhanced DUSP5 mRNA expression in a concentration-dependent manner
same,proliferation of MT-1 cells,MT-1 cells; OR21 0.5 μM,exhibited an effect of inhibiting proliferation
"CCN(c1cc(-c2ccc(CN3CCOCC3)cc2)cc(C(=O)NCc2c(C)cc(C)[nH]c2=O)c1C)C1CCOCC1 [EPZ-6438, N-[(4,6-dimethyl-2-oxo-1,2-dihydropyridin-3-yl)methyl]-5-[ethyl(tetrahydro-2H-pyran-4-yl)amino]-4-methyl-4′-(morpholin-4-ylmethyl) biphenyl-3-carboxamide]",expression amount of DUSP5 protein,DUSP5 protein; EPZ-6438 2.5 μM,almost no effect
same,DUSP5 mRNA expression,DUSP5 mRNA; EPZ-6438 at 0.5 μM and 2.5 μM,almost no effect
same,proliferation of MT-1 cells,MT-1 cells; EPZ-6438 2.5 μM,hardly affected
